Assay results: PubChem BioAssay (NCI)
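Values below derive from 48-hour exposures of cells grown in 96-well plates, with endpoints linearly interpolated between the two concentrations bracketing the appropriate inhibition level. At the TGI there is no net growth.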

Legend:
Experiment in all cases: NCI anticancer screen, dose series, 48 h
786-0 renal = test system: 786-0 renal
A549 NSCLC = test system: A549 NSCLC
ACHN renal = test system: ACHN renal
CAKI-1 renal = test system: CAKI-1 renal
CCRF-CEM leukemia = test system: CCRF-CEM leukemia
DLD-1 colon = test system: DLD-1 colon
DMS 273 small cell lung = test system: DMS 273 small cell lung
EKVX NSCLC = test system: EKVX NSCLC
HCT-116 colon = test system: HCT-116 colon
HCT-15 colon = test system: HCT-15 colon
HL-60(TB) leukemia = test system: HL-60(TB) leukemia
HOP-92 NSCLC = test system: HOP-92 NSCLC
IGROV1 ovarian = test system: IGROV1 ovarian
K-562 leukemia = test system: K-562 leukemia
KM12 colon = test system: KM12 colon
KM20L2 colon = test system: KM20L2 colon
LOX IMVI melanoma = test system: LOX IMVI melanoma
LXFL 529 NSCLC = test system: LXFL 529 NSCLC
M14 melanoma = test system: M14 melanoma
M19-MEL melanoma = test system: M19-MEL melanoma
MALME-3M melanoma = test system: MALME-3M melanoma
MOLT-4 leukemia = test system: MOLT-4 leukemia
NCI-H226 lung = test system: NCI-H226 lung
NCI-H23 lung = test system: NCI-H23 lung
NCI-H522 lung = test system: NCI-H522 lung
OVCAR-3 ovarian = test system: OVCAR-3 ovarian
RPMI-8226 leukemia = test system: RPMI-8226 leukemia
RXF-631 renal = test system: RXF-631 renal
SF-268 CNS = test system: SF-268 CNS
SF-295 CNS = test system: SF-295 CNS
SF-539 CNS = test system: SF-539 CNS
SK-MEL-2 melanoma = test system: SK-MEL-2 melanoma
SK-MEL-28 melanoma = test system: SK-MEL-28 melanoma
SK-OV-3 ovarian = test system: SK-OV-3 ovarian
SN12C renal = test system: SN12C renal
SNB-19 CNS = test system: SNB-19 CNS
SNB-75 CNS = test system: SNB-75 CNS
SNB-78 CNS = test system: SNB-78 CNS
SR leukemia = test system: SR leukemia
SW-620 colon = test system: SW-620 colon
TK-10 renal = test system: TK-10 renal
U251 CNS = test system: U251 CNS
UACC-257 melanoma = test system: UACC-257 melanoma
UACC-62 melanoma = test system: UACC-62 melanoma
UO-31 renal = test system: UO-31 renal
XF 498 CNS = test system: XF 498 CNS
A498 renal = test system: A498 renal
COLO 205 colon = test system: COLO 205 colon
DMS 114 small cell lung = test system: DMS 114 small cell lung
HCC-2998 colon = test system: HCC-2998 colon
HT29 colon = test system: HT29 colon
NCI-H460 lung = test system: NCI-H460 lung
OVCAR-4 ovarian = test system: OVCAR-4 ovarian
OVCAR-5 ovarian = test system: OVCAR-5 ovarian
OVCAR-8 ovarian = test system: OVCAR-8 ovarian
RXF 393 renal = test system: RXF 393 renal
SK-MEL-5 melanoma = test system: SK-MEL-5 melanoma
HOP-62 NSCLC = test system: HOP-62 NSCLC

Measured: TGI

CC(C)c1ccccc1NC(=O)CCC(=O)NN
not listed: A498 renal | COLO 205 colon | DMS 114 small cell lung | HCC-2998 colon | HT29 colon | NCI-H460 lung | OVCAR-4 ovarian | OVCAR-5 ovarian | OVCAR-8 ovarian | RXF 393 renal | SK-MEL-5 melanoma | HOP-62 NSCLC
> 100 µM: all other assays above

CC(=O)N(C(C)=O)c1c(N)n(C)c(=O)[nH]c1=O
not listed: NCI-H522 lung | SK-OV-3 ovarian | SNB-75 CNS | SNB-78 CNS | SR leukemia | TK-10 renal | U251 CNS | HOP-62 NSCLC
> 100 µM: all other assays above

NC(N)=N/N=C(/CCN1CCCC1)CC(c1ccccc1)c1c(O)c2ccccc2oc1=O (centres undefined)
not listed: CCRF-CEM leukemia | DMS 273 small cell lung | HCT-15 colon | HL-60(TB) leukemia | KM12 colon | MOLT-4 leukemia | SNB-78 CNS | SR leukemia | U251 CNS | UO-31 renal | A498 renal | NCI-H460 lung | OVCAR-5 ovarian | OVCAR-8 ovarian | SK-MEL-5 melanoma
> 100 µM: all other assays above
